Tests used:
PPARγ LBD mutants = assay type: cell-based, human; conditions: compared with wild-type PPARγ LBD
Procedure: All chemicals were purchased from Sigma-Aldrich (St. Louis, MO, USA). All medium and serum were obtained from Gibco (Invitrogen). […] Mutations in pBIND-PPARγ-LBD were created by site-directed mutagenesis using the Fast Mutagenesis System (TransGen Biotech, Beijing, China).
(§1) The determination of nuclear receptor activation was performed as previously. Briefly, HEK293T cells were transfected with GAL4-pGL4-luc reporter plasmid and pBIND-PPARγ-LBD expression plasmid using Lipofectamine 2000 (Invitrogen) for 6 h before treatment with compounds for 20–24 h. Activity was determined by the Luciferase Assay System (Promega).

RXR = assay: Receptor-specific transactivation, GAL4-LBD reporter in HEK293T cells; assay type: cell-based; conditions: 30 μM F12016
Procedure: (§2) HEK293T cells were cotransfected with a GAL4-pGL4-luc reporter and plasmids encoding various nuclear receptor LBDs fused with the GAL4 DNA-binding domain. […] LXR, liver X receptor; RXR, retinoid X receptor.
as §1

PPARα = target: T1, PPARα (Homo sapiens, UniProt Q07869); assay: as above; assay type: cell-based; conditions: 30 μM F12016
T1 construct: expressed in transfected cells; host or cells: HEK293T
T1 sequence (Q07869 239-466 limits assumed): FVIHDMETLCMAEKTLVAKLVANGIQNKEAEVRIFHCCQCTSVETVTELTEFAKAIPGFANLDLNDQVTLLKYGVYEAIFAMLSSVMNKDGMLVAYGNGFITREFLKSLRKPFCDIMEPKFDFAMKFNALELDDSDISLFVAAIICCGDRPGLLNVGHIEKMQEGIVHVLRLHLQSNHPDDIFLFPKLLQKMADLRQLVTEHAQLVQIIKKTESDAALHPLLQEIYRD
Procedure: as §2, §1

LXRβ = target: T2, LXRβ (Homo sapiens, UniProt P55055); assay: as above; assay type: cell-based; conditions: 30 μM F12016
T2 construct: expressed in transfected cells; host or cells: HEK293T
T2 sequence (P55055 222-460 limits assumed): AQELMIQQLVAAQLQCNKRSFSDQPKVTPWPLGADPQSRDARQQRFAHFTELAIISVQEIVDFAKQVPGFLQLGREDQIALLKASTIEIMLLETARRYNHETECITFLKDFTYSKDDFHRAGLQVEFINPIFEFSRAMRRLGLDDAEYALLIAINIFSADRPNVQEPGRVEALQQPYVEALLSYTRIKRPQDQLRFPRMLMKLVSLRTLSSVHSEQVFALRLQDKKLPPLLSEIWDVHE
Procedure: as §2, §1

[1] = tested on: PPARγ target genes in differentiating 3T3-L1 cells; assay: Expression of adipogenesis-related and PPARγ-responsive genes in differentiating 3T3-L1 adipocytes (qPCR); assay type: cell-based, mouse
Procedure: 3T3-L1 preadipocytes were grown to confluency in DMEM containing 10% CS. At 2 days post-confluency, the cells were stimulated with differentiation medium (DMEM containing 10% FBS, 10 μg/mL insulin, 1 μM dexamethasone, and 0.5 mM IBMX) for 48 h. Then, the cells were exposed in post-differentiation-maintaining medium (DMEM containing 10% FBS and 10 μg/mL insulin) for a further 48 h, which was replaced with expansion medium (DMEM containing 10% FBS) every 2 days after then. Compounds were added to the post-differentiation and expansion medium. At day 4, the cells were harvested for RNA preparation. At Day 8, the cells were fixed with 10% formaldehyde and stained with Oil red O solution. After washing with water, photos were taken. Solubilized dye was quantified at 550 nm. In addition, total triglyceride of the cells was measured by a total TG measurement kit (Applygene, China). Experiments were performed at least three times.
Total RNA was extracted using TRIzol reagent (Invitrogen). First-strand cDNA was synthesized from the total RNA using a reverse transcriptional kit (TransGen). Quantitative PCR with SYBR Green (Roche Diagnostics, Lewes, UK) was performed on a Stratagene MX3000P real-time PCR system (Agilent). Melting curves were obtained, and the specificity of PCR products was checked on agarose gels. Relative mRNA expression was determined by the ΔΔCt method and normalized to GAPDH mRNA levels.

[2] = target: T3, human PPARγ-LBD (corepressor peptide displacement) (Homo sapiens, UniProt P37231); assay: LanthaScreen TR-FRET corepressor peptide displacement assay; assay type: biochemical
T3 construct: incubated with GST-fused human PPARγ-LBD, terbium-labeled anti-GST antibody; purchased Invitrogen
T3 sequence (P37231 238-503 limits assumed): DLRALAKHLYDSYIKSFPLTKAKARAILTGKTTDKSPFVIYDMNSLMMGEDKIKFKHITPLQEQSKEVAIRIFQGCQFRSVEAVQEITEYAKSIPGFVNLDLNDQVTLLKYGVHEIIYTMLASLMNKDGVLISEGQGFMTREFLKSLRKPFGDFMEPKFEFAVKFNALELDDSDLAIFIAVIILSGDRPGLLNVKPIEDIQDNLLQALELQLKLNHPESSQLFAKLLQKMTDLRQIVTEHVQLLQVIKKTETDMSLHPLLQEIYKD
Procedure: PPARγ coregulator peptide interaction assay was performed by the LanthaScreen TR-FRET PPARγ Coactivator Assay Kit (Invitrogen) according to the manufacturer's instructions. Serial concentrations of compounds were incubated with GST-fused human PPARγ-LBD, terbium-labeled anti-GST antibody and fluorescein-labeled peptide for 4 h. The measurement and data calculation were as above.

diabetic KKAy mice = assay: Diabetic KKAy mice, 21 days treatment (fasting blood glucose, OGTT, ITT, body weight)
Procedure: Fasting blood glucose was measured with Onetoch Ultra Teststrip (Johnson & Johnson) at day 0, 3, 7, 14, 21, and body weight were monitored during these days.
After 14 days of treatment, oral glucose tolerance test (OGTT) was performed. Mice were fasted for 6 h with free access to water. 2 g/kg of glucose was given by gavage and blood glucose was measured at 0, 30, 60, 90, and 120 min.
After 21 days of feeding, insulin tolerance test (ITT) was carried out. Mice were fasted for 4 h before being injected 1 U/kg of recombinant human insulin (Novo Nordisk) subcutaneously, and blood glucose was measured at 0, 40, 90, and 120 min after insulin injection.

With “2-[2-(1, 2-dimethyl-1H-indol-3-yl)-2-oxo-acetylamino]-benzamide [Compound F12016]” the “activation of R288A, L340A and S342A mutants” value (PPARγ LBD mutants) was “reduced the ability of F12016 to activate PPARγ”, the “activation of S289A, H323A, H449A and Y473A mutants” value (PPARγ LBD mutants) was “almost the same activity as the wild-type PPARγ LBD” and the “transactivation of RXR” value (RXR) was “no effects”. For the same substance, the “transactivation of PPARα” value (PPARα) was “no effects”, the “transactivation of LXRβ” value (LXRβ) was “no effects” and the “AdipQ mRNA expression” value [1] was “increased AdipQ mRNA expression”. The “mRNA levels of 11β-HSD1” value [1] was “similarly decreased the mRNA levels”, the “transcription of Pdk4” value [1] was “decreased transcription” and the “expression of fatty acid synthase (Fasn)” value ([1]; both compounds to a similar extent) was “upregulated expression”. For the same substance, the “expression of adipogenesis-related genes (CEBP/α, PEPCK, FABP4, CD36, Gyk, Elvol3, Cox7a1)” value ([1]; compared with rosiglitazone) was “induced much less expression”, the “induction of lipoprotein lipase (LPL)” value ([1]; compared with rosiglitazone) was “less than that induced by rosiglitazone” and the “EC50/IC50 NCoR” value ([2]; corepressor peptide NCoR) was 4.425 µM. The “Efficacy NCoR” value ([2]; corepressor peptide NCoR, relative to rosiglitazone) was 91%, the “EC50/IC50 SMRT” value ([2]; corepressor peptide SMRT) was 2.861 µM and the “Efficacy SMRT” value ([2]; corepressor peptide SMRT, relative to rosiglitazone) was 58%. For the same substance, the “displacement of corepressors NCoR and SMRT” value ([2]; dose-dependent, similar degree as rosiglitazone) was “able to efficiently displace corepressors”, the fasting blood glucose (diabetic KKAy mice; F12016 75 mg/kg by gavage once daily, day 3, 7, 14 and 21, vs vehicle) was “significantly reduced fasting blood glucose” and the “glucose tolerance (OGTT)” value (diabetic KKAy mice; after 14 days of treatment, 2 g/kg glucose, F12016 75 mg/kg) was “significantly improved glucose tolerance”. The “blood glucose after insulin injection (ITT)” value (diabetic KKAy mice; after 21 days, insulin 1 IU/kg, F12016 75 mg/kg, rosiglitazone 5 mg/kg) was “significantly reduced blood glucose” and the average body weight (diabetic KKAy mice; after 21 days, F12016 75 mg/kg, rosiglitazone 5 mg/kg, vs vehicle) was “much lower than that of vehicle controls”.

Reference: PMC4381330, “Identification of a novel selective agonist of PPARγ with no promotion of adipogenesis and less inhibition of osteoblastogenesis” (Scientific Reports, 2015)
